Results: patent US11890295B2, “Helicobacter pylori eradication method including step for orally administering composition including complex of non-absorbable antibiotic and clay mineral to subject” (KOREA INSTITUTE OF GEOSCIENCE AND MINERAL RESOURCES, priority 2018, dated 2024)

Columns and labels:
[1] = test system: Clarithromycin-resistant Helicobacter pylori bacteria; assay: in vitro eradication activity on resistant strain, disk on medium; assay type: cell-based; details: twice repeated tests
Description: Clarithromycin-resistant Helicobacter pylori bacteria were applied on a medium (red), and a sample was made in the form of a disk and placed on the medium to measure an eradicating effect. At this time, if the red color disappeared around the disk, it means that there was the eradicating effect.

[2] = test system: clarithromycin-resistant strain; assay: MIC of clarithromycin for the clarithromycin-resistant strain; assay type: cell-based; details: Helicobacter pylori
[3] = test system: H. pylori, 187 culture-positive clinical strains; assay: antibiotic resistant rate from in vitro MIC on clinical strains; assay type: cell-based, Helicobacter pylori; details: based on MIC 1 μg/mL
Protocol: In virto MIC for non-absorbable antibiotic candidates (gentamicin, netilmicin, tobramycin, and amikacin) to be used as novel therapeutic agents was measured by making complexes with antibiotics (amoxicillin, clarithromycin, metronidazole, levofloxacin, and tetracyclin) that were actually used for Helicobacter eradicating treatment in clinical trials and smectite, and MIC50 and MIC90 were identified. For this end, 187 culture-positive clinical strains obtained from 1,265 patient specimens were used.

| Compound | clear zone around disk (eradication activity) [1] | MIC [2] [µg/mL] | resistant rate of H. pylori [3] [%] |
| --- | --- | --- | --- |
| CC[C@H]1OC(=O)[C@H](C)[C@@H](O[C@H]2C[C@@](C)(OC)[C@@H](O)[C@H](C)O2)[C@H](C)[C@@H](O[C@@H]2O[C@H](C)C[C@H](N(C)C)[C@H]2O)[C@](C)(OC)C[C@@H](C)C(=O)[C@H](C)[C@@H](O)[C@]1(C)O [clarithromycin] | no clear zone | 48 |  |
| gentamicin |  |  | 2.78 |
